Reference: ChEMBL document CHEMBL5316335, “Tanzawaic Acid Derivatives from the Marine-Derived Penicillium steckii as Inhibitors of RANKL-Induced Osteoclastogenesis” (J Nat Prod, 2023)
The source made the active and inactive calls. The rule behind the calls is not given here.

How the values were obtained:
[1] = Inhibition of LPS-induced NF-kappaB activation in mouse RAW264.7 cells transfected with NF-kappaB luciferase reporter gene pretreated with compounds for 30 mins followed by LPS stimulation for 8 hrs by luciferase reporter gene assay; format: cell-based
Klebsiella pneumoniae = assay: Antibacterial activity against Klebsiella pneumoniae assessed as inhibition of bacterial growth by broth microdilution method; format: functional, organism-based
Candida albicans = assay: Antifungal activity against Candida albicans Berkhout assessed as inhibition of fungal growth by broth microdilution method; format: functional, organism-based
Staphylococcus aureus = assay: Antibacterial activity against Staphylococcus aureus assessed as inhibition of bacterial growth by broth microdilution method; format: functional, organism-based
[2] = system: Colletotrichum gloeosporioides; assay: Antifungal activity against Colletotrichum gloeosporioides assessed as inhibition of fungal growth by broth microdilution method; format: functional, organism-based
Pyricularia grisea = assay: Antifungal activity against Magnaporthe grisea assessed as inhibition of fungal growth by broth microdilution method; format: functional, organism-based
Sclerotinia sclerotiorum = assay: Antifungal activity against Sclerotinia sclerotiorum Hanzawa assessed as inhibition of fungal growth by broth microdilution method; format: functional, organism-based
LNCaP = assay: Anticancer activity against human LNCaP cells assessed as reduction in cell viability by MTT assay; format: functional, cell-based
CWR22R = assay: Anticancer activity against human 22Rv1 cells assessed as reduction in cell viability by MTT assay; format: functional, cell-based
PC-3 = assay: Anticancer activity against human PC-3 cells assessed as reduction in cell viability by MTT assay; format: functional, cell-based
DU-145 = assay: Anticancer activity against human DU-145 cells assessed as reduction in cell viability by MTT assay; format: functional, cell-based
BMMC = assay: Anti-osteoclastogenic activity in mouse BMMC assessed as inhibition of RANKL-induced osteoclast differentiation at 5 to 15 uM and measured after 3 days by TRAP staining inverted microscopic analysis; format: functional, cell-based; conditions: dose 5-15 µM, time 3.0 day

For `Cc1ccc(S(=O)(=O)/C=C/C#N)cc1`, the IC50 [1] was 5 µM.

For `Cc1ccc2c(c1/C=C/C=C/C(=O)O)[C@H](C)C[C@@](C)(O)C2`, the Activity (Klebsiella pneumoniae) was “inactive”, the IC50 [1] was 18.6 µM and the Activity (Candida albicans) was “inactive”. The Activity (Staphylococcus aureus) was “inactive”, the Activity [2] was “inactive” and the Activity (Pyricularia grisea) was “inactive”. For the same compound, the Activity (Sclerotinia sclerotiorum) was “inactive”, the Activity (LNCaP) was “inactive” and the Activity (CWR22R) was “inactive”. For the same compound, the Activity (PC-3) was “inactive” and the Activity (DU-145) was “inactive”.

For `C[C@@H]1C[C@H](C)[C@H](O)c2ccc(CO)c(/C=C/C=C/C(=O)O)c21`, the Activity (Klebsiella pneumoniae) was “inactive”, the IC50 [1] was 10.4 µM and the Activity (BMMC) was “Dose-Dependent Effect”. The Activity (Candida albicans) was “inactive”, the Activity (Staphylococcus aureus) was “inactive” and the Activity [2] was “inactive”. For the same compound, the Activity (Pyricularia grisea) was “inactive”, the Activity (Sclerotinia sclerotiorum) was “inactive” and the Activity (LNCaP) was “inactive”. The Activity (CWR22R) was “inactive”, the Activity (PC-3) was “inactive” and the Activity (DU-145) was “inactive”.

In the case of `C[C@@H]1C[C@@H]2[C@H](O)[C@H](O)[C@H](C)[C@](O)(/C=C/C=C/C(=O)O)[C@H]2[C@H](C)C1`, the Activity (Klebsiella pneumoniae) is reported as “inactive”, the IC50 [1] is reported as 15.2 µM and the Activity (Candida albicans) is reported as “inactive”. For the same compound, the Activity (Staphylococcus aureus) was “inactive”, the Activity [2] was “inactive” and the Activity (Pyricularia grisea) was “inactive”. For the same compound, the Activity (Sclerotinia sclerotiorum) was “inactive”, the Activity (LNCaP) was “inactive” and the Activity (CWR22R) was “inactive”. For the same compound, the Activity (PC-3) was “inactive” and the Activity (DU-145) was “inactive”.
